In experiment [1] the target is T1, recombinant Pseudomonas aeruginosa LpxC (Pseudomonas aeruginosa, UniProt P47205).
T1 construct: purchased Signalway Antibody AP74647-2
T1 sequence (P47205 1-303): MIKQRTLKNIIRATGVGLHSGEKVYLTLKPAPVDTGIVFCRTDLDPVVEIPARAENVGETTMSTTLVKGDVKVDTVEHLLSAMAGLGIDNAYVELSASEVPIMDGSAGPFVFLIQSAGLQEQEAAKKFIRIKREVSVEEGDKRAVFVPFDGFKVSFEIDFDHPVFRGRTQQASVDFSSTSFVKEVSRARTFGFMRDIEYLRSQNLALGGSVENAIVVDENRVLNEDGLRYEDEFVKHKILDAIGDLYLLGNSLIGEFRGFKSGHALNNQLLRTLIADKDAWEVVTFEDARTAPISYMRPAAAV
Put plainly: Inhibition of enzymatic activity of recombinant Pseudomonas aeruginosa LpxC in vitro. It counts as biochemical. Particulars: 5 nM LpxC; substrate UDP-3-O—(R-3-hydroxydecanoyl)-GlcNAc; 25 °C, 120 minutes; fluorescamine readout. The method, then:
The following method was used to determine degrees of inhibition of the compounds of the present invention on the enzymatic activity of recombinant Pseudomonas aeruginosa LpxC in vitro.
The test process was briefly described as follows: the tested compound was first dissolved in DMSO to prepare a 10 mM storage solution. The reaction was carried out in a 96-well microplate. Firstly, 20 μL of recombinant Pseudomonas aeruginosa LpxC (purchased from Signalway Antibody, article number AP74647-2) was added into the wells, and the final concentrations were 5 nM respectively. 5 μL of the compound to be tested was added, diluted in 4-fold, with 8 concentration points, and the concentration range was 0.61-10000 nM. 5 μL of LpxC substrate UDP-3-O—(R-3-hydroxydecanoyl)-GlcNAc (purchased from Biosynth Carbosynth, article number mu75071) was added, wherein a final concentration of the substrate was […], and the substrate was incubated at 25 °C for 120 minutes. Subsequently, 20 μL of 2.0 mg/mL fluorescamine (purchased from sigma aldrich, article number F9015, wherein a solvent was dimethylformamide/acetonitrile (1:1)) was added to the reaction system, mixed evenly and reacted for 10 minutes. Finally, 50 μL of 200 mM sodium phosphate buffer solution (pH 8.0) was added to stop the reaction, and a microplate reader (BMG) was used for reading. An excitation wavelength and an emission wavelength were 390 nm and 495 nm respectively. Compared with the fluorescence intensity ratio of a control group (0.1% DMSO), the percentage inhibition rates of the compounds at each concentration were calculated, and the IC50 values of the compounds were obtained by performing nonlinear regression analysis with logarithmic value of the compound concentration-inhibition rate by GraphPad Prism 5 software, which can be seen in Table 1.

The test system of experiment [2] is E. coli ATCC 25922. In words: Antibacterial activity, minimum inhibitory concentration (MIC) in vitro, broth dilution. It counts as cell-based. Particulars: Escherichia coli, ATCC25922, 5×10^5 cfu/mL, 35 °C, 18-24 hours. The method, then: (§1) The minimum inhibitory concentration (MIC) in vitro was determined according to CLSI's guidelines, and a minimal broth dilution method was used.
(§2) The test process was briefly described as follows: the tested compound was dissolved in DMSO to prepare a storage solution of […], and then prepared into 11 two-fold-diluted 100× high-concentration working liquids (a final concentration of the system was 64 μg/mL to 0.06 μg/mL) by DMSO. Stains (K. pneumoniae ATCC13883, K. pneumoniae ATCC51504 and E. coli ATCC 25922) frozen at −80 °C with glycerin were inoculated to a solid agar culture medium, placed into an incubator for culturing for 18-24 hours at 35 °C to finish the preparation work of the strains. A proper amount of solid plate culture was collected, re-suspended in normal saline, and uniformly mixed. The turbidity of the bacterial suspension was adjusted to a proper turbidity by a turbidity meter, containing about 1×10^8 cfu/mL of bacteria. Then, the turbidity-regulated bacterial suspension was diluted with a test culture medium (type: CAMHIIB, purchased from BD company) to a bacterial concentration of 5×10^5 cfu/mL, thus finishing the preparation of an inoculation solution. 198 μL of the inoculation solution was inoculated into a 96-well plate, and added with 2 μL 100× high concentration working liquid of the compound, then the 96-well plate was placed at 35 °C for culturing for 18-24 hours.
In general terms: Dilution methods test growth across graded concentrations, often in twofold steps.

For experiment [3], the system named is K. pneumoniae ATCC51504. The description is as above. The experiment is classed as cell-based. The following applies: Klebsiella pneumoniae, 5×10^5 cfu/mL, 35 °C, 18-24 hours. How it is done: as §1, §2

Each structure is given as a SMILES string. Values after ≈ are worked out from the molar mass of the structure shown.

Broadly, the IC50 is the concentration needed to halve the response being measured. A word on the MIC: it is the lowest concentration that inhibits growth of the organism. Higher therefore signals a less susceptible organism. In the case of `C[C@H](O)c1nccn1Cc1cc(-c2ccc(C#CC3=CCN(C(=O)C4CCOCC4)CC3)cc2)on1` [Example 66, (S)-(4-((4-(3-((2-(1-hydroxyethyl)-1H-imidazol-1-yl)methyl)isoxazol-5-yl)phenyl)ethynyl)-3,6-dihydropyridin-1(2H)-yl)(tetrahydro-2H-pyran-4-yl)methanone], the IC50 in experiment [1] is 18.5 nM. The MIC in experiment [2] was found to be 2 µg/mL (≈ 4.11 µM); in experiment [3], 1 µg/mL (≈ 2.06 µM).
For `CC(=O)N1CC=C(C#Cc2ccc(-c3cc(Cn4ccnc4[C@H](C)O)no3)cc2)CC1` [Example 62, (S)-1-(4-((4-(3-((2-(1-hydroxyethyl)-1H-imidazol-1-yl)methyl)isoxazol-5-yl)phenyl)ethynyl)-3,6-dihydropyridin-1(2H)-yl)ethan-1-one] the same measures were 18 nM, 0.5 µg/mL (≈ 1.2 µM) and 0.5 µg/mL (≈ 1.2 µM).
In the same order, the values of `COCCC(=O)N1CC=C(C#Cc2ccc(-c3cc(Cn4ccnc4[C@H](C)O)no3)cc2)CC1` [Example 67, (S)-1-(4-((4-(3-((2-(1-hydroxyethyl)-1H-imidazol-1-yl)methyl)isoxazol-5-yl)phenyl)ethynyl)-3,6-dihydropyridin-1(2H)-yl)-3-methoxypropan-1-one] are 22.9 nM, 1 µg/mL (≈ 2.17 µM) and 0.5 µg/mL (≈ 1.09 µM).
In the same order, the values of `C[C@H](O)c1nccn1Cc1cc(-c2ccc(C#CC3=CCN(C(=O)c4cccnc4)CC3)cc2)on1` [Example 45, (S)-(4-((4-(3-((2-(1-hydroxyethyl)-1H-imidazol-1-yl)methyl)isoxazol-5-yl)phenyl)ethynyl)-3,6-dihydropyridin-1(2H)-yl)(pyridin-3-yl)methanone] are 12.3 nM, 1 µg/mL (≈ 2.09 µM) and 0.5 µg/mL (≈ 1.04 µM).
For the compound `C[C@H](O)c1nccn1Cc1cc(-c2ccc(C#CC3=CCN(C(=O)C4COCCO4)CC3)cc2)on1` (stereo partly drawn) [Example 64, (1,4-dioxan-2-yl)(4-((4-(3-((2-((S)-1-hydroxyethyl)-1H-imidazol-1-yl)methyl)isoxazol-5-yl)phenyl)ethynyl)-3,6-dihydropyridin-1(2H)-yl)methanone], the IC50 in experiment [1] came to 19.1 nM. The figures for the minimal inhibitory concentration (MIC) in experiment [2] and in experiment [3] were 1 µg/mL (≈ 2.05 µM) and 0.5 µg/mL (≈ 1.02 µM), respectively.
In the same order, the values of `C[C@H](O)c1nccn1Cc1cc(-c2ccc(C#CC3=CCN(C(=O)N4CCOCC4)CC3)cc2)on1` [Example 60, (S)-(4-((4-(3-((2-(1-hydroxyethyl)-1H-imidazol-1-yl)methyl)isoxazol-5-yl)phenyl)ethynyl)-3,6-dihydropyridin-1(2H)-yl)(morpholino)methanone] are 25.3 nM, 2 µg/mL (≈ 4.1 µM) and 1 µg/mL (≈ 2.05 µM).
In the case of `C[C@H](O)c1nccn1Cc1cc(-c2ccc(C#CC3=CCN(C(=O)c4ccnnc4)CC3)cc2)on1` [Example 39, (S)-(4-((4-(3-((2-(1-hydroxyethyl)-1H-imidazol-1-yl)methyl)isoxazol-5-yl)phenyl)ethynyl)-3,6-dihydropyridin-1(2H)-yl)(pyridazin-4-yl)methanone], in experiment [1], the IC50 is 21.7 nM. Moreover, the MIC in experiment [2] was 2 µg/mL (≈ 4.16 µM); in experiment [3] it was 1 µg/mL (≈ 2.08 µM).
For `COCC(=O)N1CC=C(C#Cc2ccc(-c3cc(Cn4ccnc4[C@H](C)O)no3)cc2)CC1` [Example 68, (S)-1-(4-((4-(3-((2-(1-hydroxyethyl)-1H-imidazol-1-yl)methyl)isoxazol-5-yl)phenyl)ethynyl)-3,6-dihydropyridin-1(2H)-yl)-2-methoxyethan-1-one] the same measures were 21.2 nM, 1 µg/mL (≈ 2.24 µM) and 1 µg/mL (≈ 2.24 µM).
For `C[C@H](O)c1nccn1Cc1cc(-c2ccc(C#CC3=CCN(CCC#N)CC3)cc2)on1` [Example 44, (S)-3-(4-((4-(3-((2-(1-hydroxyethyl)-1H-imidazol-1-yl)methyl)isoxazol-5-yl)phenyl)ethynyl)-3,6-dihydropyridin-1(2H)-yl)propanenitrile] the same measures were 24.9 nM, 1 µg/mL (≈ 2.34 µM) and 0.5 µg/mL (≈ 1.17 µM).
For `C[C@H](O)c1nccn1Cc1cc(-c2ccc(C#CC3=CCN(CC(N)=O)CC3)cc2)on1` [Example 59, (S)-2-(4-((4-(3-((2-(1-hydroxyethyl)-1H-imidazol-1-yl)methyl)isoxazol-5-yl)phenyl)ethynyl)-3,6-dihydropyridin-1(2H)-yl)acetamide] the same measures were 23.8 nM, 2 µg/mL (≈ 4.64 µM) and 0.5 µg/mL (≈ 1.16 µM).
Take `C[C@H](O)c1nccn1Cc1cc(-c2ccc(C#CC3=CCN(C(=O)C4CC4)CC3)cc2)on1` [Example 36, (S)-cyclopropyl(4-((4-(3-((2-(1-hydroxyethyl)-1H-imidazol-1-yl)methyl)isoxazol-5-yl)phenyl)ethynyl)-3,6-dihydropyridin-1(2H)-yl)methanone]: the half-maximal inhibitory concentration (IC50) in experiment [1] came to 19 nM. Also, the minimum inhibitory concentration (MIC) is 1 µg/mL (≈ 2.26 µM) in experiment [2] and 0.25 µg/mL (≈ 0.565 µM) in experiment [3].
Turning to `C[C@H](O)c1nccn1Cc1cc(-c2ccc(C#CC3=CCN(C(=O)Cn4cncn4)CC3)cc2)on1` [Example 37, (S)-1-(4-((4-(3-((2-(1-hydroxyethyl)-1H-imidazol-1-yl)methyl)isoxazol-5-yl)phenyl)ethynyl)-3,6-dihydropyridin-1(2H)-yl)-2-(1H-1,2,4-triazol-1-yl)ethan-1-one], the MIC in experiment [2] and in experiment [3] was 2 µg/mL (≈ 4.14 µM) throughout.
`C[C@H](O)c1nccn1Cc1cc(-c2ccc(C#CC3=CCN(C=O)CC3)cc2)on1` [Example 57, (S)-4-((4-(3-((2-(1-hydroxyethyl)-1H-imidazol-1-yl)methyl)isoxazol-5-yl)phenyl)ethynyl)-3,6-dihydropyridine-1(2H)-carbaldehyde]: the half-maximal inhibitory concentration (IC50) in experiment [1] was determined as 29.4 nM. Further, the minimum inhibitory concentration (MIC) is 2 µg/mL (≈ 4.97 µM) in experiment [2] and 1 µg/mL (≈ 2.48 µM) in experiment [3].
As for `C[C@H](O)c1nccn1Cc1cc(-c2ccc(C#CC3=CCN(CCn4cncn4)CC3)cc2)on1` [Example 43, (S)-1-(1-((5-(4-((1-(2-(1H-1,2,4-triazol-1-yl)ethyl)-1,2,3,6-tetrahydropyridin-4-yl)ethynyl)phenyl)isoxazol-3-yl)methyl)-1H-imidazol-2-yl)ethan-1-ol], the IC50 in experiment [1] worked out at 25.8 nM. Besides, the minimal inhibitory concentration (MIC) in experiment [2] was 2 µg/mL (≈ 4.26 µM); in experiment [3], 1 µg/mL (≈ 2.13 µM).
In the same order, the values of `C[C@H](O)c1nccn1Cc1cc(-c2ccc(C#CC3=CCN(C(=O)C4(O)CC4)CC3)cc2)on1` [Example 69, (S)-(1-hydroxycyclopropyl)(4-((4-(3-((2-(1-hydroxyethyl)-1H-imidazol-1-yl)methyl)isoxazol-5-yl)phenyl)ethynyl)-3,6-dihydropyridin-1(2H)-yl)methanone] are 20.8 nM, 2 µg/mL (≈ 4.36 µM) and 2 µg/mL (≈ 4.36 µM).
In the same order, the values of `C[C@H](O)c1nccn1Cc1cc(-c2ccc(C#CC3=CCN(C(=O)c4cncnc4)CC3)cc2)on1` [Example 40, (S)-(4-((4-(3-((2-(1-hydroxyethyl)-1H-imidazol-1-yl)methyl)isoxazol-5-yl)phenyl)ethynyl)-3,6-dihydropyridin-1(2H)-yl)(pyrimidin-5-yl)methanone] are 21.4 nM, 2 µg/mL (≈ 4.16 µM) and 0.5 µg/mL (≈ 1.04 µM).
With `C[C@H](O)c1nccn1Cc1cc(-c2ccc(C#CC3=CCN(C(=O)C4COCCN4)CC3)cc2)on1` (stereo partly drawn) [Example 42, (4-((4-(3-((2-((S)-1-hydroxyethyl)-1H-imidazol-1-yl)methyl)isoxazol-5-yl)phenyl)ethynyl)-3,6-dihydropyridin-1(2H)-yl)(morpholin-3-yl)methanone], the results for the MIC in experiment [2] and in experiment [3] were 4 µg/mL (≈ 8.2 µM) and 2 µg/mL (≈ 4.1 µM), respectively.

The values are drawn from patent US20260365641A1, “Aromatic Acetylene Derivative, Preparation Method Therefor, And Use Thereof” (Zhejiang Hisun Pharmaceutical Co., Ltd., priority 2022, published 2026).
